Drawing on patent publication EP4353712A1 (Biodol Therapeutics, priority 2022, dated 2024), this text covers IC50 for 35 compounds.

For the test, the target named is T1, FLT3 (Homo sapiens, UniProt P36888).
T1 construct: expressed in transfected cells; host or cells: HEK293T
T1 sequence (P36888 27-993): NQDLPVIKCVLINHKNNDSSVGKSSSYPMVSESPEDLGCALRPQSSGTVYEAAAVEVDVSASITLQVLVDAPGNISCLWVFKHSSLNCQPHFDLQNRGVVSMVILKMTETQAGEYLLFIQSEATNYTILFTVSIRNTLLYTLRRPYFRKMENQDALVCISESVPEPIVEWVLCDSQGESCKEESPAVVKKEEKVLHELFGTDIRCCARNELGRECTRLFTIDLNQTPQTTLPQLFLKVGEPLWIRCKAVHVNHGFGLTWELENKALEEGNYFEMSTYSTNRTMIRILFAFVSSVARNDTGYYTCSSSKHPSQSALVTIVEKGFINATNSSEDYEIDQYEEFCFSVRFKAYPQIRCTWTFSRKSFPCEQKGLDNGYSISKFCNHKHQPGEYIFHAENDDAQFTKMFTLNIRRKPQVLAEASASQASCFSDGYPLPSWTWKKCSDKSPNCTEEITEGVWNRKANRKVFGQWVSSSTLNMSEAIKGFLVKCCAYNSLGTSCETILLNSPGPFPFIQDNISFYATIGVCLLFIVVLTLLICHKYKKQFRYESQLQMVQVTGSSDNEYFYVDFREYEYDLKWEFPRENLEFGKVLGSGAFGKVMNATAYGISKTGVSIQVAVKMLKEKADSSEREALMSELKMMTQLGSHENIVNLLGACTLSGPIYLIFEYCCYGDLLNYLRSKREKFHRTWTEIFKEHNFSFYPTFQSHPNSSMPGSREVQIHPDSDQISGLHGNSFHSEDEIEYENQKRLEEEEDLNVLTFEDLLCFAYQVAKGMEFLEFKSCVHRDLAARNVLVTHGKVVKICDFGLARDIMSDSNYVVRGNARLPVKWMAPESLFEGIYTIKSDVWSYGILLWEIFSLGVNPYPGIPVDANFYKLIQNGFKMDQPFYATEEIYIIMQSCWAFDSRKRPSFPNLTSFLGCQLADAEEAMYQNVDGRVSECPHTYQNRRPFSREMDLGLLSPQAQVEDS
The experiment in a line: HTRF binding assay of FL to FLT3 (TR-FRET, SNAP-FLT3 transfected HEK293T cells). Conditions: HEK293T cells transfected with SNAP-FLT3, labelled with SNAP-Lumi4-Tb; compounds 1 h at room temperature, then FL-d2 (0.5 nM), read after 20 h; 12 dilutions in triplicates, performed twice; read-out: Inhibition of FLT3 binding IC50, binding. The procedure:
The binding of FL to FLT3 was measured by a Homologous Time-Resolved Fluorescence (HTRF) assay (Degorce et al., Current Chemical Genomics, 2009, 3, 22-32), which involves resonance energy transfer between a donor, Lumi4-Tb-donor-derivatized benzylguanine substrate (SNAP-Lumi4-Tb, excitation: 337 nm, emission: 630 nm, Cisbio, France), transfected in HEK cells, and an acceptor, red fluorescent FL (FL-d2, excitation: 620 nm, emission: 660 nm, Cisbio, France). When FL-d2 binds to the SNAP-Lumi4-Tb-tagged FLT3 receptor, the proximity of both fluorophores allows the time-resolved Förster resonance energy transfer (TR-FRET) signal to occur and the binding is measured as the ratio between the fluorescent emissions at 660 to 620 nm.
The detailed method is described in Rivat et al. (Nature Communications, 2018, 9 :1042). Briefly, HEK293T cells were transfected with a pCDNA3.1 SNAP-FLT3 plasmid by using Lipofectamine (Invitrogen), and were than labelled with SNAP-Lumi4-Tb. Plates containing attached transfected HEK293T cells were incubated with compounds of formula (I) for 1 h at room temperature. A series of 12 dilutions in triplicates was used for each compound and the experiment was performed twice. Then FL-d2 (0.5 nM) was added and the TR-FRET signal was read after 20 h incubation at room temperature with a HTRF-compatible reader (Envision, Perkin Elmer) allowing a donor excitation at 337 nm and a signal collection both at 615 nm and 665 nm (20 flashes, delay 50 µs, integration time 400 µs). Then HTRF ratio, obtained by dividing the acceptor signal (665 nm) by the donor signal (615 nm), was calculated at each concentration of test compounds. Non-specific binding was measured in the presence 50 µM of BDT001 (Rivat et al., ibid.). Concentration giving 50 % inhibition (IC50) were calculated by non-linear regression analysis for a one-site model, with variable slope (Prism®, Graphpad software, USA).
A general note: Time-resolved FRET reads energy transfer from a long-lived donor to a nearby acceptor.
As usually defined, the IC50 is the concentration that gives 50% inhibition. Turning to `CN1CCC(c2ccc(C(=O)Nc3ccc(F)c4cccnc34)cc2)CC1` [(1), N-(5-fluoroquinolin-8-yl)-4-(1-methylpiperidin-4-yl)benzamide], the IC50 amounted to 1200 nM. Next, `CN1CCC(c2ccc(C(=O)Nc3ccc(F)c4cnccc34)cc2)CC1` [(2), N-(8-fluoroisoquinolin-5-yl)-4-(1-methylpiperidin-4-yl)benzamide]: 1400 nM.

Consider `CN1CCC(c2ccc(C(=O)Nc3ccc(F)c4ccncc34)cc2)CC1` [(3), N-(5-fluoroisoquinolin-8-yl)-4-(1-methylpiperidin-4-yl)benzamide], for which the IC50 is 1800 nM.

`CN1CCC(c2ccc(C(=O)Nc3ccc(F)c4ncccc34)cc2)CC1` [(4), N-(8-fluoroquinolin-5-yl)-4-(1-methylpiperidin-4-yl)benzamide]: the IC50 came to 5300 nM.

Take `CN1CCC(c2ccc(C(=O)Nc3ccc(F)c4nccnc34)cc2)CC1` [(5), N-(8-fluoroquinoxalin-5-yl)-4-(1-methylpiperidin-4-yl)benzamide]: the IC50 is 400 nM. Next, `CN1CCC(c2ccc(C(=O)Nc3cccc4ncccc34)cc2)CC1` [(6), 4-(1-methylpiperidin-4-yl)-N-(quinolin-5-yl)benzamide]: 1300 nM; `CN1CCC(c2ccc(C(=O)Nc3cccc4cnccc34)cc2)CC1` [(7), N-(isoquinolin-5-yl)-4-(l-methylpiperidin-4-yl)benzamide]: 800 nM; `CN1CCC(c2ccc(C(=O)Nc3cccc4ccncc34)cc2)CC1` [(8), N-(isoquinolin-8-yl)-4-(1-methylpiperidin-4-yl)benzamide]: 800 nM. Regarding `CN1CCC(c2ccc(C(=O)Nc3cccc4cccnc34)cc2)CC1` [(9), 4-(1-methylpiperidin-4-yl)-N-(quinolin-8-yl)benzamide], the IC50 amounted to 1500 nM.

As for `CN(C)CCOc1ccc(C(=O)Nc2cccc3ccncc23)cc1` [(10), 4-[2-(dimethylamino)ethoxy]-N-(isoquinolin-8-yl)benzamide], the IC50 is 800 nM.

With `CN(C)CCOc1ccc(C(=O)Nc2cccc3cccnc23)cc1` [(11), 4-[2-(dimethylamino)ethoxy]-N-(quinolin-8-yl)benzamide], the IC50 came to 2900 nM. With `CN1CCC(c2ccc(C(=O)Nc3cccc4cccnc34)c(F)c2)CC1` [(12), 2-fluoro-4-(1-methylpiperidin-4-yl)-N-(quinolin-8-yl)benzamide], the IC50 was determined as 1800 nM. Next, `CN1CCC(c2ccc(C(=O)Nc3cccc4cnccc34)cc2F)CC1` [(13), 3-fluoro-N-(isoquinolin-5-yl)-4-(1-methylpiperidin-4-yl)benzamide]: 1400 nM; `CN(C)CCOc1ccc(C(=O)Nc2cccc3cnccc23)cc1` [(14), 4-(2-(dimethylamino)ethoxy)-N-(isoquinolin-5-yl)benzamide]: 900 nM; `CN(C)CCOc1ccc(C(=O)Nc2cccc3ncccc23)cc1` [(15), 4-(2-(dimethylamino)ethoxy)-N-(quinolin-5-yl)benzamide]: 1700 nM. Take `COc1cc(C2CCN(C)CC2)ccc1C(=O)Nc1cccc2cccnc12` [(16), 2-methoxy-4-(1-methylpiperidin-4-yl)-N-(quinolin-8-yl)benzamide]: the IC50 was 600 nM. Next, `COc1cc(C(=O)Nc2cccc3cnccc23)ccc1C1CCN(C)CC1` [(17), N-(isoquinolin-5-yl)-3-methoxy-4-(1-methylpiperidin-4-yl)benzamide]: 900 nM; `CN1CCC(c2ccc(C(=O)Nc3cccc4cccnc34)c(C(F)(F)F)c2)CC1` [(18), 4-(1-methylpiperidin-4-yl)-N-(quinolin-8-yl)-2-(trifluoromethyl)benzamide]: 1700 nM; `CN(C)CCOc1ccc(C(=O)Nc2cccc3cnncc23)cc1` [(19), 4-[2-(dimethylamino)ethoxy]-N-(phthalazin-5-yl)benzamide]: 25000 nM. Then `CN(C)CCOc1ccc(C(=O)Nc2ccc(F)c3ncccc23)cc1` [(20), 4-(2-(dimethylamino)ethoxy)-N-(8-fluoroquinolin-5-yl)benzamide], with 6200 nM; and `CN1CCC(c2ccc(C(=O)Nc3cccc4cnccc34)cc2C#N)CC1` [(21), 3-cyano-N-(isoquinolin-5-yl)-4-(1-methylpiperidin-4-yl)benzamide], with 2000 nM; and `CN(C)CCOc1ccc(C(=O)Nc2ccc(F)c3ccncc23)cc1` [(22), 4-(2-(dimethylamino)ethoxy)-N-(5-fluoroisoquinolin-8-yl)benzamide], with 1900 nM. Regarding `CN(C)CCOc1ccc(C(=O)Nc2ccc(F)c3nccnc23)cc1` [(23), 4-(2-(dimethylamino)ethoxy)-N-(8-fluoroquinoxalin-5-yl)benzamide], the IC50 turned out to be 500 nM. Then `CN1CCN(c2ccc(C(=O)Nc3cccc4cnccc34)cc2F)CC1` [(24), 3-fluoro-N-(isoquinolin-5-yl)-4-(4-methylpiperazin-1-yl)benzamide], with 1100 nM. Consider `CN1CCC(c2ccc(C(=O)Nc3cccc4cnccc34)c(S(C)(=O)=O)c2)CC1` [(25), N-(isoquinolin-5-yl)-2-methanesulfonyl-4-(1-methylpiperidin-4-yl)benzamide], for which the IC50 was found to be 2600 nM. In the case of `CN(C)CCOc1ccc(C(=O)Nc2ccc(F)c3cccnc23)cc1` [(26), 4-[2-(dimethylamino)ethoxy]-N-(5-fluoroquinolin-8-yl)benzamide], the IC50 turned out to be 1400 nM. For the compound `CN1CCC(c2ccc(C(=O)Nc3cccc4ncccc34)cc2C(F)(F)F)CC1` [(27), 4-(1-methylpiperidin-4-yl)-N-(quinolin-5-yl)-3-(trifluoromethyl)benzamide], the IC50 stood at 3600 nM. Next, `CN1CCC(c2ccc(C(=O)Nc3cccc4nccnc34)cc2)CC1` [(28), 4-(1-methylpiperidin-4-yl)-N-(quinoxalin-5-yl)benzamide]: 400 nM. Then `Cc1cc(C(=O)Nc2cccc3ncccc23)ccc1N1CCN(C)CC1` [(29), 3-methyl-4-(4-methylpiperazin-1-yl)-N-(quinolin-5-yl)benzamide], with 1200 nM; and `CN1CCC(c2ccc(C(=O)Nc3ccc(Cl)c4ncccc34)cc2)CC1` [(30), N-(8-chloroquinolin-5-yl)-4-(1-methylpiperidin-4-yl)benzamide], with 1900 nM. Then `CN(C)CCOc1ccc(C(=O)Nc2cccc3nccnc23)cc1` [(31), 4-[2-(dimethylamino)ethoxy]-N-(quinoxalin-5-yl)benzamide], with 700 nM. Regarding `CN(C)CCOc1ccc(C(=O)Nc2ccc(Cl)c3ncccc23)cc1` [(32), N-(8-chloroquinolin-5-yl)-4-[2-(dimethylamino)ethoxy]benzamide], the IC50 was determined as 2400 nM. Next, `CN(C)CCOc1ccc(C(=O)Nc2ccc(F)c3cnccc23)cc1` [(33), 4-[2-(dimethylamino)ethoxy]-N-(8-fluoroisoquinolin-5-yl)benzamide]: 2300 nM. Next, `COc1ccc(NC(=O)c2ccc(OCCN(C)C)cc2)c2ccncc12` [(34)]: 500 nM.

Turning to `CN1CCN(c2ccc(C(=O)Nc3cccc4cccnc34)cc2)CC1` [(35), 4-(4-methylpiperazin-1-yl)-N-(quinolin-8-yl)benzamide], the IC50 amounted to 1700 nM.
